From publication PMC11249953, “c-KIT inhibitors reduce pathology and improve behavior in the Tg(SwDI) model of Alzheimer’s disease” (Life Science Alliance, 2024)
Values joined by “and” are separate entries in the source; they are usually repeats but may differ in a detail not shown here. Equal values may be shown once.

Experiments:
TgAPP mice = experiment: Morris water maze, TgAPP mice; assay type: in vivo, mouse; set-up: Platform Distance: unit not given beside the values; Total Distance / Quad Time / Quad Distance / Trial 1 D4 / Trial 1 D4 AVG: unit not given here
Description: The Morris water maze was performed using a water bath 6 ft in diameter and filled with roughly 1 ft of water. The maze was divided into four quadrants, each with a visual stimulus positioned on the wall of the maze in the center of the quadrant arc. A clear platform was placed in one quadrant just beneath the surface of the water. Mice were then placed in a random non-platform quadrant and allowed to swim freely for 60 s (time was stopped and recorded if the mouse found the platform) before being placed on the platform for 15 s and returned to their cage. This was repeated for each of the three quadrants each day for 4 d. On the 5th d, the platform was removed and mice were placed in the quadrant opposite of where the platform had been and allowed to swim freely for 1 min before being returned to their cage. Time spent in the correct quadrant, latency to the platform, number of platform entries, and number of quadrant entries were recorded.

mice = experiment: Elevated plus maze, source data sheets EPM (mouse line not given); assay type: in vivo; conditions: 2.5mg/kg, individual mice, listed as 143; for EPM Trial 1 Time Closed / EPM Trial 1 Time Open / EPM Trial 2 Time Open: in s
Description: The elevated plus maze was performed using a standard set up, with two enclosed arms and two open arms. Mice were placed at the intersection of the open and closed arms and allowed to freely explore for 5 min, two times. Time spent in the open and closed arms and number of entries into the open and closed arms were recorded.

[1] = MWM Probe, single animal values, listed as 143
[2] = MWM Probe, single animal values, listed as 143, in s (unit assumed)
[3] = MWM training, Day 1, single animal values, listed as 143
[4] = MWM training, Day 2, single animal values, listed as 143
[5] = MWM training, Day 3, single animal values, listed as 143
[6] = MWM training, Day 4, single animal values, listed as 143
[7] = sum of trials 1 and 2, female mice
[8] = sum of trials 1 and 2, in s (unit assumed), female mice

For `Cc1cccc(-c2cc3nccc(Nc4ccccc4)c3s2)c1` [BK40143], the “Platform Distance” value (TgAPP mice; [1]) was 0.467 and 0 and 0.449 and 0.195 and 0.184 and 0.331 and 0.254 and 0.89 and 0.328, the “Platform Entries” value (TgAPP mice; [1]) was 2 and 0 and 1 and 3 and the “Quad Distance” value (TgAPP mice; [1]) was 5.043 and 5.446 and 3.201 and 3.934 and 3.492 and 4.145 and 2.65 and 6.181 and 3.964. The “Quad Distance/Total” value (TgAPP mice; [1]) was 0.3982 and 0.4027 and 0.1894 and 0.2536 and 0.5166 and 0.3292 and 0.1787 and 0.6061 and 0.2552, the “Quad Entries” value (TgAPP mice; [1]) was 10 and 8 and 9 and 3 and 6 and 13 and 7 and the “Quad Time” value (TgAPP mice; [1]) was 22.9 and 26.8 and 10.6 and 13.3 and 30.6 and 20.6 and 8.1 and 36.5 and 15.3. For the same compound, the “Total Distance” value (TgAPP mice; [1]) was 12.663 and 13.525 and 16.899 and 15.514 and 6.759 and 12.592 and 14.83 and 10.786 and 10.198 and 15.531, the “Platform Latency” value (TgAPP mice; MWM Probe, single animal values, listed as 143, in s) was 7 and 60 and 18.8 and 32.8 and 39.9 and 29.7 and 3.9 and 19 and 17.1 and the “Platform Time” value (TgAPP mice; [2]) was 1.2 and 0 and 1.4 and 0.6 and 0.8 and 5.3 and 1. For the same compound, the “Quad Latency” value (TgAPP mice; [2]) was 3 and 9.6 and 9.7 and 11.8 and 11.9 and 1 and 2.6 and 4.4 and 3.3, the “Quad Time per Entry” value (TgAPP mice; [2]) was 2.29 and 3.35 and 1.178 and 4.433 and 5.1 and 1.585 and 1.35 and 5.214 and 1.9125 and the “Training Day 1 AVG” value (TgAPP mice; MWM training, Day 1, group average) was 51.6747. For the same compound, the “Training Day 1, mean of the three trials per animal” value (TgAPP mice; MWM training, Day 1, per-animal mean, listed as 143) was 53.4467 and 60 and 52.4667 and 29.4467 and 47.4833 and 58.2367 and 44.37 and 51.2967, the “Training Day 1, trial 1” value (TgAPP mice; [3]) was 40.34 and 60 and 56.02 and the “Training Day 1, trial 2” value (TgAPP mice; [3]) was 60 and 37.4 and 16.7 and 22.45 and 54.71 and 56.59. For the same compound, the “Training Day 1, trial 4” value (TgAPP mice; [3]) was 60 and 11.64 and 20.5 and 33.89, the “Training Day 2 AVG” value (TgAPP mice; MWM training, Day 2, group average) was 35.2243 and the “Training Day 2, mean of the three trials per animal” value (TgAPP mice; MWM training, Day 2, per-animal mean, listed as 143) was 48.7167 and 60 and 46.3833 and 23.8467 and 50.26 and 10.58 and 21.0467 and 41.7533 and 44.3033 and 5.353. The “Training Day 2, trial 1” value (TgAPP mice; [4]) was 60 and 20.69 and 7.13 and 14.22 and 47.78 and 22.96 and 5.56, the “Training Day 2, trial 2” value (TgAPP mice; [4]) was 60 and 19.15 and 23.07 and 4.53 and 36.28 and 34.46 and 5.16 and the “Training Day 2, trial 4” value (TgAPP mice; [4]) was 26.15 and 60 and 27.78 and 30.78 and 20.08 and 12.64 and 43.02 and 49.95 and 5.34. For the same compound, the “Training Day 3 AVG” value (TgAPP mice; MWM training, Day 3, group average) was 21.9237, the “Training Day 3, mean of the three trials per animal” value (TgAPP mice; MWM training, Day 3, per-animal mean, listed as 143) was 16.49 and 19.77 and 22.4067 and 12.88 and 27.5233 and 6.497 and 51.49 and 20.0267 and 24.96 and 17.1933 and the “Training Day 3, trial 1” value (TgAPP mice; [5]) was 5.91 and 7.09 and 10.32 and 15.21 and 29.09 and 11.01 and 60 and 23.94 and 21.27 and 31.09. For the same compound, the “Training Day 3, trial 2” value (TgAPP mice; [5]) was 2.72 and 9.21 and 18.46 and 13.59 and 19.08 and 3.47 and 34.47 and 8.82 and 17.41 and 5.46, the “Training Day 3, trial 4” value (TgAPP mice; [5]) was 40.84 and 43.01 and 38.44 and 9.84 and 34.4 and 5.01 and 60 and 27.32 and 36.2 and 15.03 and the “Trial 1 D4 AVG” value (TgAPP mice; MWM training, Day 4, Trial 1, group average) was 16.872. For the same compound, the “Training Day 4 AVG” value (TgAPP mice; MWM training, Day 4, group average) was 25.5753, the “Training Day 4, mean of the three trials per animal” value (TgAPP mice; MWM training, Day 4, per-animal mean, listed as 143) was 15.5667 and 10.07 and 25.41 and 53.8233 and 37.2967 and 27.5933 and 22.5667 and 22.4167 and 10.7767 and 30.2333 and the “Training Day 4, trial 1” value (TgAPP mice; [6]) was 12.47 and 11.66 and 37.95 and 60 and 26.19 and 10.69 and 29.33 and 43.27 and 12.2 and 43.31. For the same compound, the “Training Day 4, trial 2” value (TgAPP mice; [6]) was 3.58 and 4.64 and 11.51 and 49.87 and 42.77 and 12.09 and 15.35 and 10.7 and 9.45 and 8.76, the “Training Day 4, trial 4” value (TgAPP mice; [6]) was 30.65 and 13.91 and 26.77 and 51.6 and 42.93 and 60 and 23.02 and 13.28 and 10.68 and 38.63 and the “Morris water maze probe day (time in correct quadrant, quadrant entries, latency to platform)” value (TgAPP mice; TgAPP mice, 5 mg/kg IP, 6 wk, vs DMSO) was “showed improvement on measures of memory on the probe day of the water maze”. The “Morris water maze training trials: time to locate the platform” value (TgAPP mice; TgAPP mice, BK40143 5 mg/kg, BK40197 45 mg/kg IP, 6 wk, vs DMSO) was “locate the platform significantly quicker on later training trials”, the “EPM Trial 1 Closed Entries” value (mice; female mice) was 7 and 2 and 1 and 3 and 5 and the “EPM Trial 1 Open Entries” value (mice; female mice) was 6 and 2 and 1 and 5 and 3. The “EPM Trial 2 Closed Entries” value (mice; female mice) was 2 and 8 and 1 and 5, the “EPM Trial 2 Open Entries” value (mice; female mice) was 1 and 6 and 0 and 4 and the “EPM Trial 2 Time Closed” value (mice; in s (unit assumed), female mice) was 296 and 240 and 300 and 257 and 277. For the same compound, the “EPM Trial 2 Time Closed” value (mice; in s (unit assumed), male mice) was 251, the “EPM Trial 1 Time Closed” value (mice; female mice) was 280 and 287 and 293 and 268 and 258 and 222 and the “EPM Trial 1 Time Open” value (mice; female mice) was 20 and 13 and 7 and 32 and 42 and 78. For the same compound, the “EPM Trial 2 Time Open” value (mice; female mice) was 4 and 60 and 0 and 43 and 23, the “EPM Trial 1 Time Closed” value (mice; male mice) was 255 and the “EPM Trial 1 Time Open” value (mice; male mice) was 45. For the same compound, the “EPM Trial 2 Time Open” value (mice; male mice) was 49, the “EPM Trial 1 Closed Entries” value (mice; male mice) was 10 and the “EPM Trial 1 Open Entries” value (mice; male mice) was 10. For the same compound, the “EPM Trial 2 Closed Entries” value (mice; male mice) was 6, the “EPM Trial 2 Open Entries” value (mice; male mice) was 8 and the “EPM Totals Closed Entries” value (mice; [7]) was 9 and 10 and 2 and 3 and 8 and 11. The “EPM Totals Open Entries” value (mice; [7]) was 7 and 8 and 1 and 5 and 10, the “EPM Totals Time Closed” value (mice; [8]) was 576 and 527 and 593 and 568 and 515 and 499 and the “EPM Totals Time Open” value (mice; [8]) was 24 and 73 and 7 and 32 and 85 and 101.
